Converted amounts (≈) assume the structure as drawn.
Columns and labels:
[1] = system: Mycobacterium tuberculosis; experiment: Antimycobacterial activity against Mycobacterium tuberculosis H37Rv ATCC 27294 after 28 days by two-fold serial dilution method; type: functional; conditions: H37Rv ATCC 27294, 672 h
[2] = Cytotoxicity against HEK293T cells assessed as inhibition of cell viability at 50 ug/ml after 72 hrs by MTT assay relative to control; type: cell-based, HEK-293T; conditions: human, read-out: INH
[3] = Therapeutic index, ratio of compound cytotoxic activity for HEK293T cells to antimycobacterial activity against Mycobacterium tuberculosis H37Rv ATCC 27294; type: cell-based, HEK-293T; conditions: human, read-out: TI

SMILES	MIC99 [1] [µg/mL]	cytotoxicity at 72 h, 50 ug/ml [2] [%]	selectivity ratio [3]
O=C(NCc1ccccc1)c1nc2ccccc2s1	3.12 (≈ 11.6 µM)	41.2	–
Nc1ccc(CCNC(=O)c2nc3cc(Cl)ccc3s2)cc1	1.56 (≈ 4.7 µM)	25.9	–
CC[C@@H](CO)NCCN[C@@H](CC)CO [ETHAMBUTOL]	1.56 (≈ 7.64 µM)	–	–
Nc1ccc(CCNC(=O)c2nc3ccccc3s2)cc1	25 (≈ 84.1 µM)	–	–
O=C(NCc1ccccc1)c1nc2cc(Cl)ccc2s1	6.25 (≈ 20.6 µM)	40.1	–
Cc1ccccc1CNC(=O)c1nc2ccccc2s1	12.5 (≈ 44.3 µM)	42.6	–
COc1ccc(CNC(=O)c2nc3cc(Cl)ccc3s2)cc1OC	6.25 (≈ 17.2 µM)	36.1	–
O=C(NCc1cc(F)ccc1F)c1nc2cc(Cl)ccc2s1	0.78 (≈ 2.3 µM)	32.2	> 64
O=C(NCc1ccc(F)cc1)c1nc2ccccc2s1	6.25 (≈ 21.8 µM)	50.3	–
NNC(=O)c1ccncc1 [ISONIAZID]	0.098 (≈ 0.715 µM)	–	–
O=C(NCc1ccc(F)cc1F)c1nc2ccccc2s1	25 (≈ 82.2 µM)	–	–
CO[C@H]1/C=C/O[C@@]2(C)Oc3c(C)c(O)c4c(O)c(c(/C=N/N5CCN(C)CC5)c(O)c4c3C2=O)NC(=O)/C(C)=C\C=C\[C@H](C)[C@H](O)[C@@H](C)[C@@H](O)[C@@H](C)[C@H](OC(C)=O)[C@@H]1C [RIFAMPIN]	0.197 (≈ 0.239 µM)	–	–
Nc1ccc(CCNC(=O)c2nc3cc(C(F)(F)F)ccc3s2)cc1	50 (≈ 137 µM)	–	–
O=C(NCc1ccc(Cl)cc1Cl)c1nc2ccccc2s1	50 (≈ 148 µM)	–	–
O=C(NCc1cccc(Cl)c1)c1nc2ccccc2s1	50 (≈ 165 µM)	–	–
Cc1ccc(CNC(=O)c2nc3ccccc3s2)cc1	50 (≈ 177 µM)	–	–
O=C(NCc1ccccc1)c1nc2cc(C(F)(F)F)ccc2s1	6.25 (≈ 18.6 µM)	40.1	–
O=C(NCc1cccc(F)c1)c1nc2ccccc2s1	6.25 (≈ 21.8 µM)	44.6	–
COc1ccc(CNC(=O)c2nc3ccccc3s2)c(OC)c1	50 (≈ 152 µM)	–	–
COc1ccc(CCNC(=O)c2nc3ccccc3s2)cc1OC	25 (≈ 73 µM)	–	–
O=C(NCc1ccc([N+](=O)[O-])cc1)c1nc2ccccc2s1	12.5 (≈ 39.9 µM)	38.1	–
COc1ccccc1CNC(=O)c1nc2cc(Cl)ccc2s1	12.5 (≈ 37.6 µM)	38.9	–
O=C(NCc1cccc(Cl)c1)c1nc2cc(Cl)ccc2s1	25 (≈ 74.1 µM)	–	–

SMILES	MIC99 [1] [µg/mL]	cytotoxicity at 72 h, 50 ug/ml [2] [%]	selectivity ratio [3]
O=C(NCc1ccccc1F)c1nc2ccccc2s1	25 (≈ 87.3 µM)	–	–
O=C(NCc1ccc(Cl)cc1)c1nc2cc(Cl)ccc2s1	25 (≈ 74.1 µM)	–	–
O=C(NCc1ccc(F)cc1)c1nc2cc(Cl)ccc2s1	25 (≈ 77.9 µM)	–	–
O=C(NCc1ccccc1Cl)c1nc2ccccc2s1	6.25 (≈ 20.6 µM)	35.6	–
O=C(NCc1ccc(F)cc1)c1nc2cc(C(F)(F)F)ccc2s1	12.5 (≈ 35.3 µM)	38.7	–
COc1ccc(CCNC(=O)c2nc3cc(Cl)ccc3s2)cc1OC	12.5 (≈ 33.2 µM)	30.9	–
COc1ccc(CCNC(=O)c2nc3cc(C(F)(F)F)ccc3s2)cc1OC	25 (≈ 60.9 µM)	–	–
O=C(NCc1ccc(Cl)cc1)c1nc2ccccc2s1	50 (≈ 165 µM)	–	–
COc1ccc(CNC(=O)c2nc3ccccc3s2)cc1OC	12.5 (≈ 38.1 µM)	19.1	–
O=C(NCc1ccccc1Cl)c1nc2cc(Cl)ccc2s1	12.5 (≈ 37.1 µM)	36	–
NC(=O)c1cnccn1 [PYRAZINAMIDE]	6.25 (≈ 50.8 µM)	–	–
COc1ccccc1CNC(=O)c1nc2ccccc2s1	50 (≈ 168 µM)	–	–
O=C(NCc1ccc2c(c1)OCO2)c1nc2ccccc2s1	6.25 (≈ 20 µM)	16.1	–
COc1ccc(CNC(=O)c2nc3ccccc3s2)cc1	25 (≈ 83.8 µM)	–	–
O=C(NCc1cc(F)ccc1F)c1nc2ccccc2s1	6.25 (≈ 20.5 µM)	52.1	–
O=C(NCc1ccc(C(F)(F)F)cc1)c1nc2ccccc2s1	12.5 (≈ 37.2 µM)	36.7	–
O=C(NCCc1ccccc1)c1nc2ccccc2s1	3.12 (≈ 11.1 µM)	22	–
O=C(NCc1ccc2c(c1)OCO2)c1nc2cc(Cl)ccc2s1	25 (≈ 72.1 µM)	–	–
O=C(NCc1ccc(F)c(F)c1)c1nc2ccccc2s1	25 (≈ 82.2 µM)	–	–
COc1ccc(CNC(=O)c2nc3ccccc3s2)cc1O	25 (≈ 79.5 µM)	–	–
CC(C)(C)c1ccc(CNC(=O)c2nc3ccccc3s2)cc1	50 (≈ 154 µM)	–	–
N#Cc1ccc(CNC(=O)c2nc3ccccc3s2)cc1	12.5 (≈ 42.6 µM)	36	–
